Measurements: patent US8470333B2, “Chimeric peptides comprising HER-2 B-cell epitopes and T-helper epitopes” (The Ohio State University Research Foundation, priority 2005, dated 2013)
Positions of bridges follow the written chain, without caps; N, C: chain ends. No end group written: not given here.

What was measured:
NT2.5 tumor cell line = test: NT2.5 tumor challenge in immunized FVB/n mice; type: in vivo, mouse; conditions: for doubling time: NT2.5 tumor in vaccinated FVB/N mice; for mean tumor volumes at day 30: FVB/n mice, 5×10^6 NT2.5 cells s.c. two weeks after final immunization, data not shown
Text: (§1) The human EGFR disulfide pairings have been defined. Based on the high homology between EGFR and HER-2, the 628-647 epitope to 626-649 to incorporate two disulfide bonds between Cys-626 and Cys-634, and Cys-630 and Cys-642. Differential side chain protection and a specialized deprotection and oxidation successfully generated the cyclized product with a desired secondary structural characteristics as determined by CD measurements. […] Cyclized antibodies elicited twice the level of specific lysis compared to non-cyclized antibodies in an ADCC assay (11 and 5.6% respectively). To investigate the in vivo effect of these peptide vaccines, inbred FVB/N mice were immunized with the constructs. Both constructs were immunogenic in these mice with the cyclized construct generating higher titers. These mice were then challenged with the NT2.5 tumor cell line which has an FVB/N background.
To better understand the potential clinical benefit associated with introducing conformational constraints into B-cell epitope vaccines, both FVB/n and neu-N transgenic mice were challenged with the tumor cell line NT2.5 derived from a spontaneous mammary tumor isolated from a neu-N transgenic mouse. As a consequence of neu over-expression these mice develop spontaneous mammary adenocarcinomas in a manner similar to that observed in human breast cancer patients, and are therefore a suitable model for human breast cancer studies. […] (lower abdomen) two weeks after final immunization. Tumor measurements were taken twice weekly until day 55. Tumor volumes were calculated by the formula (long measurement×short measurement^2)/2. Note that after day 30 the tumors in FVB/n mice begin to regress, indicative of rejection of the tumor. With subsequent tumor studies using FVB/n mice, tumors were measured to day 30.

FVB/n mice = test: Immunogenicity in FVB/n mice, antibody titers by direct ELISA; type: in vivo, mouse
Procedure: Groups of four to ten FVB/n mice were immunized with linear (NC) or disulfide-bonded (SS) peptide constructs (A) MVF563-598, (B) MVF585-598, (C) MVF597-626, or the linear peptide (D) MVF613-626. Each mouse is represented as an individual bar. Note that the scale in A is different then B-D;
Direct ELISAs were performed on sera from mice immunized with the cyclized (CYC) and linear (NC) constructs to determine differences in immunogenicity. Antibody titers against the corresponding immunogen were defined as the reciprocal of the highest dilution with absorbance ≧0.2. Each bar represents an individual mouse. Designation on the x-axis represents time at which sera was sampled, e.g. 1y+3 corresponds to serum collected three weeks after the first immunization. Neu-N mice have an FVB/n background and express normal rat neu proto-oncogene under control of a mammary-specific promoter. These mice show tolerance to neu relative to non-transgenic mice (Cancer Research 60, 3569).
Direct ELISA. U-bottom polyvinyl chloride plastic assay plates were coated with 100 μl of antigen at 2 μg/ml in PBS overnight at 4° C. Nonspecific binding sites were blocked for 1 hour with 200 μl PBS-1% BSA and plates were washed with PBT (phosphate-buffered saline containing 0.05% Tween 20 and 1% horse serum). Rabbit antiserum 1/500 or mouse antiserum 1/50 in PBT was added to antigen coated plates, serially diluted 1:2 in PBT, and incubated 2 hr at room temperature. After washing the plates, 50 μl of 1/500 goat anti-rabbit or goat anti-mouse IgG conjugated to horseradish peroxidase (Pierce Chemical Co.) was added to each well. Excess antibody conjugate was removed, and bound antibody was detected using 50 μl of 0.15% H2O2 in 24 mM citric acid, 5 mM sodium phosphate buffer, pH 5.2, with 0.5 mg/ml […] as the chromophore. Color development was allowed to proceed for 10 min and the reaction was stopped with 25 μl of 1% sodium dodecylsulfate. Absorbance was determined at 410 nm using a Dynatech MR700ELISA reader. Results are expressed as the mean absorbance of duplicate wells after subtraction of background.
The immunogenicity of the 4 constructs listed in Table 1 was determined using both the disulfide-bonded and linear constructs by immunizing groups of FVB/n mice (n=4-9) 6-8 weeks old. […] Three mice that received the cyclized form of 597-626 had titers above 120,000, while no mouse that received the linear form had titers above 120,000.

trastuzumab = test: ELISA binding of trastuzumab to peptides; conditions: FIG. 4
Procedure: The peptide sequences are given on the x-axis. MVF316-339 is an Her-2 irrelevant control peptide;
Microtiter wells were coated overnight with 2 μg/ml of various peptides and then blocked with 1% BSA for one hour. […] Values shown are the mean of duplicate samples. SEM are indicated by error bars.

HER-2 protein = molecular target: T1, HER-2 protein (Homo sapiens, UniProt P04626); test: Flow cytometry binding of anti-peptide antibodies to HER-2 protein (Example 1); type: cell-based; conditions: antibodies against the epitope; flow cytometry binding to HER-2 protein
T1 construct: endogenous in cells; host or cells: SKBR3 or MCF-7 according to the general method
Procedure: Indirect Binding Assay. SKBR3 cells or MCF-7 cells were plated at 5,000 cells/well in V-bottom plates (Linbro, McLean Va.). The cells were incubated with various concentrations of antibodies. After being washed with Hank's Balanced Salts Solution (HBSS) the cells were incubated for one hour with fluorescein isothiocyanate (FITC)-conjugated goat anti-rabbit or goat anti-mouse antibody and fixed with formalin. A mouse monoclonal Ab (Oncogene Science, Cambridge, Mass.) was used as the positive control and an anti-CD3 Ab as the negative control. The cells were analyzed by a Coulter ELITE flow cytometer (Coulter, Hialeah, Fla.), which has an argon laser for excitation at 488 nm, and a 525 run band pass filter for FITC fluorescence 5.0×10^3 cells were counted for each sample and final processing was performed. Debris, cell clusters and dead cells were gated out by light scatted assessment before single parameter histograms were drawn.
The human EGFR disulfide pairings have been defined. Based on the high homology between EGFR and HER-2, the 628-647 epitope to 626-649 to incorporate two disulfide bonds between Cys-626 and Cys-634, and Cys-630 and Cys-642. Differential side chain protection and a specialized deprotection and oxidation successfully generated the cyclized product with a desired secondary structural characteristics as determined by CD measurements. […]

[1] = test system: cells overexpressing HER-2; test: Anchorage-independent growth assay; type: cell-based; conditions: antibodies against the epitope
effector human PBMCs = test: IFN-γ release in the presence of effector human PBMCs; type: cell-based; conditions: antibodies against the construct
ADCC assay (Example 1) = type: cell-based; conditions: antibodies against the epitope
Text: as §1

[2] = test system: BT-474 human breast cancer cells (HER-2high); test: Flow cytometry of peptide antibodies with BT474 cells; type: cell-based
Procedure: Flow cytometry was used to assess whether antibodies from FVB/n mice induced by various constructs recognize native HER-2. BT-474 human breast cancer cells (HER-2high) were treated with 10 μg/mL of normal mouse Ig (negative control), mouse monoclonal Ab-2 (positive control), or peptide antibodies raised in FVB/n mice.
(§2) The reactivity of purified antibodies from immunized mouse sera was tested with (A) BT474 and (B) SKBR-3 breast cancer cell lines using flow cytometric analysis. Ab binding was detected with goat-anti mouse FITC-conjugated abs. The x-axis represents fluorescent intensity, and the y-axis represents relative cell number. Each histogram contains an overlay of mouse pre IgG, peptide antibodies, and AB2, a mouse mAb that binds HER-2.
(§3) Indirect Binding Assay. SKBR3 cells or MCF-7 cells were plated at 5,000 cells/well in V-bottom plates (Linbro, McLean Va.). The cells were incubated with various concentrations of antibodies. […] The cells were analyzed by a Coulter ELITE flow cytometer (Coulter, Hialeah, Fla.), which has an argon laser for excitation at 488 nm, and a 525 run band pass filter for FITC fluorescence 5.0×10^3 cells were counted for each sample and final processing was performed. […]

[3] = test system: SKBR-3 breast cancer cell line; test: Flow cytometry of peptide antibodies with SKBR-3 cells; type: cell-based, human; conditions: purified antibodies from immunized mouse sera, FIG. 13
Procedure: as §2
Cell Culture. Stock cultures were maintained at 37° C. in a 5% CO2 incubator. All cell culture media, FCS, and supplements were purchased from GEBCO (Grand Island, N.Y.). The human breast adenocarcinoma cell lines SKBR-3 and MCF-7 were obtained from the American Type Culture Collection and was subcultured in McCoy's 5A or DMEM supplemented with 10% FCS and L-glutainine. Cav-1 was maintained in RPMI 1640 with 10% FCS and L-glutamine. […] SKBR3 is a breast tumor cell line which overexpresses the HER-2 protein while MCF-7 expresses the normal concentration of protein.
as §3, with “Va.).” for “Va.). The cells were incubated with various concentrations of antibodies.”

[4] = by day 33, compared to both unimmunized and MVF immunized mice

Which doubling time (NT2.5 tumor cell line) does the source give for “KLLSLIKGVIVHRLEGVE [MVF control peptide, reference compound]” here?
The doubling time was 4.48 days.

Which immunogenicity (FVB/n mice; FVB/n mice, Example 3, FIG. 3) does the source give for “KLLSLIKGVIVHRLEGVE-GPSL-CHPECQPQNGSVTCFGPEADQCVACAHYKDPPFCVA (KLLSLIKGVIVHRLEGVEGPSLCHPECQPQNGSVTCFGPEADQCVACAHYKDPPFCVA; disulfide (positions not given here)) [MVF 563 SS]” here?
Its immunogenicity is “highly immunogenic”.

And the titers (FVB/n mice; two mice of the group, three weeks after the third immunization)?
The titers was “above 250,000”.

And the “mean tumor volumes at day 30” value (NT2.5 tumor cell line; listed as 563-598 SS)?
The value was 173.7292 mm^3.

And the binding to trastuzumab (trastuzumab)?
The binding to trastuzumab was “Maximum binding”.

With “KLLSLIKGVIVHRLEGVE-GPSL-CHPECQPQNGSVTCFGPEADQCVACAHYKDPPFCVA [563-598 NC]” as the substance, how does the “mean tumor volumes at day 30” value (NT2.5 tumor cell line) read?
The value was 166.517 mm^3.

What does the source list for “KLLSLIKGVIVHRLEGVE-GPSL-CPINCTHSCVDLDDKGCPAEQRAS [626-649 cyclized]”?
immunogenicity (FVB/n mice; inbred FVB/N mice, Example 1): higher titers; mean log fluorescence (HER-2 protein): 2.29; inhibition (reduction of growth) [1]: 31%; IFN-γ release (effector human PBMCs): able to elicit IFN-γ release; higher levels of IFN-γ compared to the linear antibodies (effector human PBMCs): 25%; specific lysis (ADCC assay (Example 1)): 11%; doubling time (NT2.5 tumor cell line): 6.63 days; tumor volume (NT2.5 tumor cell line; immunized FVB/N mice challenged with NT2.5, compared to linear and control MVF immunized mice): reduction in tumor volume

Which results are given for “KLLSLIKGVIVHRLEGVE-GPSL-CPINCTHSCVDLDDKGCPAEQRAS [626-649 linear]”?
immunogenicity (FVB/n mice; inbred FVB/N mice, Example 1): immunogenic; mean log fluorescence (HER-2 protein): 1.65; inhibition (reduction of growth) [1]: 58%; IFN-γ release (effector human PBMCs): able to elicit IFN-γ release; specific lysis (ADCC assay (Example 1)): 5.6%; doubling time (NT2.5 tumor cell line): 4.31 days

What does the source list for “KLLSLIKGVIVHRLEGVE-GPSL-IWKFPDEEGACQPL (KLLSLIKGVIVHRLEGVEGPSLIWKFPDEEGACQPL) [MVF 613]”?
immunogenicity (FVB/n mice; FVB/n mice, Example 3, FIG. 3): highly immunogenic; tumor volume (NT2.5 tumor cell line; [4]): reduction in tumor volume; shift in flow cytometry ([2]; FVB/n purified antibodies, FIG. 5): shifted relative to normal mouse antibodies; recognition of HER-2 ([2]; purified antibodies from immunized mouse sera, FIG. 13): recognize HER-2; recognition of HER-2 [3]: recognize HER-2

Which “tumor development and growth” value (NT2.5 tumor cell line; wild-type FVB/n mice, 3×106 NT2.5 cells s.c., 24 days, compared to MVF immunized mice only) does the source give for “KLLSLIKGVIVHRLEGVE-GPSL-LHCPALVTYNTDTFESMPNPEGRYTFGASCV (KLLSLIKGVIVHRLEGVEGPSLLHCPALVTYNTDTFESMPNPEGRYTFGASCV; also: cyclized) [MVF 266 CYC]” here?
The value was “delayed tumor development (A) and growth (B)”.

For “KLLSLIKGVIVHRLEGVE-GPSL-VACAHYKDPPFCVA (KLLSLIKGVIVHRLEGVEGPSLVACAHYKDPPFCVA; disulfide 25-34 (inferred)) [MVF 585 SS]”, which tumor volume (NT2.5 tumor cell line; [4]) is on record?
The tumor volume was “reduction in tumor volume”.

For “KLLSLIKGVIVHRLEGVE-GPSL-VARCPSGVKPDLSYMPIWKFPDEEGACQPL [597-626 linear]”, which titers (FVB/n mice; no mouse of the group above this value) is on record?
The titers was ≤ 120,000.
